Like-named read-outs stand apart in the source and are kept apart here.
Key:
anesthesia and analgesia = details: cited from earlier work
[1] = cited from earlier work; for T1/2: biological half-life of metabolite
neuropathic pain = details: cited from earlier work
[2] = Dose linearity test for oral transmucosal S-ketamine formulations

CNC1(c2ccccc2Cl)CCCCC1=O (racemic) [Ketamine, dl-2-(o-chloro-phenyl)-2(methylamino)cyclohexanone]
duration of anesthesia (anesthesia and analgesia; IM administration): 12 to 25 min
time to anesthesia (anesthesia and analgesia; IM route): 3 to 4 min
time to anesthesia (anesthesia and analgesia; administered intravenously): ≤ 0.5 min
time to sensation of dissociation (anesthesia and analgesia; administered intravenously): 15 s
ketamine concentration at effective analgesia (anesthesia and analgesia; following oral dose): 40 ng/mL
Time to onset (anesthesia and analgesia; iv bolus, dosage 2 mg/kg): 30 to 60 s
duration of effect (anesthesia and analgesia; iv bolus, dosage 2 mg/kg): 10 to 15 min
plasma levels at which analgesic effects were observed (anesthesia and analgesia; sum of S- and R-isomer, intramuscular and intravenous administration): 100 to 200 ng/mL
T½ beta ([1]; biological half-life): 4.98 (1.56) h
Clearance ([1]; in vivo): 12 to 17 mL/min/kg
Metabolites excreted fecally ([1]; in vivo): 5%
Metabolites excreted renally ([1]; in vivo): 90%
Urinary excretion of unchanged drug ([1]; in vivo): 3-4%
administered dose excreted unchanged in urine ([1]; in vivo): 4%
alpha phase half-life ([1]; in vivo): 0.167 to 0.25 h
apparent volume of distribution ([1]; in vivo): 3.3 L/kg
beta phase half-life ([1]; in vivo): 2 to 3 h
clearance rate ([1]; in vivo): 1.3 L/min
distribution half-life ([1]; in vivo): 7 to 11 min
duration of alpha phase of distribution ([1]; in vivo): about 45 minutes
elimination half-life ([1]; in vivo): 2 to 3 h
elimination halftime ([1]; in vivo): about 2.5 hours
Bioavailability ([1]; intramuscular dose): 93%
time of peak plasma concentrations ([1]; intramuscular injection): 5 to 10 min
Bioavailability ([1]; intranasal dose): 25-50%
time of peak plasma concentrations ([1]; intravenous administration): ≤ 1 min
time of peak plasma concentrations ([1]; oral administration): 30 min
Bioavailability ([1]; oral dose): 20±7%
Bioavailability ([1]; orally administered, extensive first-pass metabolism): approximately 16%
time of peak absorption ([1]; rectal, in children): 45 min
oral bioavailability (AUC) relative to intravenous injection ([1]; single oral dose of 0.5 mg/kg): about 20%

NC1(c2ccccc2Cl)CCC=CC1=O (stereo not drawn) [Dehydronorketamine]
T1/2 [1]: 6.91 (1.71) h

NC1(c2ccccc2Cl)CCCCC1=O (stereo not drawn) [Norketamine]
peak plasma concentrations of norketamine ([1]; after oral administration of ketamine): 200 ng/mL
T1/2 [1]: 5.32 (1.70) h

CN[C@]1(c2ccccc2Cl)CCCCC1=O [S-Ketamine]
therapeutic index relative to R-Ketamine (anesthesia and analgesia; in vivo): 2.5 times
time to maximal pain reduction (neuropathic pain; after nasal application): 60 min
plasma concentrations of (S)-norketamine (neuropathic pain; between 30 and 180 min after intranasal administration): > 10 ng/mL
time to (S)-ketamine plasma-peak (neuropathic pain; intranasal): ≤ 15 min
time to decline of plasma level below 10 ng/ml (neuropathic pain; intranasal): ≤ 60 min
duration of reduction of ongoing neuropathic pain (neuropathic pain; low-dose intranasal administration): 2 to 3 h
range of dose linearity [2]: 10 to 300 mg

N[C@]1(c2ccccc2Cl)CCCCC1=O [S-norketamine]
analgesic and anaesthetic effect relative to S-ketamine (anesthesia and analgesia; in vivo): five times weaker

Reference: patent publication US20140079740A1 (priority 2012, published 2014)
